Values of other authors as cited in paper PMC5646416 (Journal of clinical pharmacy and therapeutics, 2017).

Conditions: single-dose pharmacokinetic studies

AUC higher in rs4149056 CC homozygotes than in rs4149056 TT homozygotes | SMILES
162–191% | O=C(O)C[C@H](O)C[C@H](O)/C=C/c1c(C2CC2)nc2ccccc2c1-c1ccc(F)cc1 [pitavastatin]
57–130% | CC[C@H](C)C(=O)O[C@H]1C[C@H](O)C=C2C=C[C@H](C)[C@H](CC[C@@H](O)C[C@@H](O)CC(=O)O)[C@H]21 [pravastatin]
62–117% | CC(C)c1nc(N(C)S(C)(=O)=O)nc(-c2ccc(F)cc2)c1/C=C/[C@@H](O)C[C@@H](O)CC(=O)O [rosuvastatin]
221% | CCC(C)(C)C(=O)O[C@H]1C[C@@H](C)C=C2C=C[C@H](C)[C@H](CC[C@@H](O)C[C@@H](O)CC(=O)O)[C@H]21 [simvastatin acid]
